The results in this text go back to publication PMC4703063, “Dual functionality of O-GlcNAc transferase is required for Drosophila development” (Open Biology, 2015).

In data set [1] the target is T1, Δ1–312 hOGT (Homo sapiens, UniProt O15294).
T1 construct: gene OGT; N-terminally truncated, residues 1-312 removed (printed once as Δ1-313 beside the Ki); part of TPRs plus catalytic domain; recombinant
T1 sequence (O15294 323-1041): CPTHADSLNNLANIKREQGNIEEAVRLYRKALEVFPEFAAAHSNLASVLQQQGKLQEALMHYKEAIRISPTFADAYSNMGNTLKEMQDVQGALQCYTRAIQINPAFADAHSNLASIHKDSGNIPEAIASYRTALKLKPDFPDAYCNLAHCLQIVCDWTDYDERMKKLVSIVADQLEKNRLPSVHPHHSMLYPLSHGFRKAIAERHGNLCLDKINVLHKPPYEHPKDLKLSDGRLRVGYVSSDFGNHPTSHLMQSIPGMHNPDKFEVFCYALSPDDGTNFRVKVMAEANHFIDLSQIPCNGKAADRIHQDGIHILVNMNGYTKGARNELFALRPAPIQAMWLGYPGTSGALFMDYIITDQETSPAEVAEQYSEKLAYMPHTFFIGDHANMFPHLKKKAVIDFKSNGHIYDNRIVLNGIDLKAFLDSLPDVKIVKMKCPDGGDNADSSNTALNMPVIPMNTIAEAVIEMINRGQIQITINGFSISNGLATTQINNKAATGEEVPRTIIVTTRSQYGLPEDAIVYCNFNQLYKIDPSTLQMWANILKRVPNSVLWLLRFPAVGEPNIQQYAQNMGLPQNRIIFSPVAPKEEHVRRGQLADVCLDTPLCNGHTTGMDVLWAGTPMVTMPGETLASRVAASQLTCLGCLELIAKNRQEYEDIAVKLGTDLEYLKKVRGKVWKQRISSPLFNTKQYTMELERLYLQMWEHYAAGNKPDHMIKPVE
Kind of data set: radiometric transfer assay on RBL2 peptide, three-parameter dose-response fit. The class given is biochemical.

In data set [2] the target is T2, Δ1–352 DmOGT (Drosophila melanogaster, UniProt Q7KJA9, K872M).
T2 construct: gene sxc; N-terminally truncated construct starting at residue 353 in TPR 10 (part of TPRs plus catalytic domain); expressed in E. coli (ArcticExpress), purified as hOGT Δ1-312; wild type in kinetics, K872M in crystal
T2 sequence (Q7KJA9 353-1059 K872M): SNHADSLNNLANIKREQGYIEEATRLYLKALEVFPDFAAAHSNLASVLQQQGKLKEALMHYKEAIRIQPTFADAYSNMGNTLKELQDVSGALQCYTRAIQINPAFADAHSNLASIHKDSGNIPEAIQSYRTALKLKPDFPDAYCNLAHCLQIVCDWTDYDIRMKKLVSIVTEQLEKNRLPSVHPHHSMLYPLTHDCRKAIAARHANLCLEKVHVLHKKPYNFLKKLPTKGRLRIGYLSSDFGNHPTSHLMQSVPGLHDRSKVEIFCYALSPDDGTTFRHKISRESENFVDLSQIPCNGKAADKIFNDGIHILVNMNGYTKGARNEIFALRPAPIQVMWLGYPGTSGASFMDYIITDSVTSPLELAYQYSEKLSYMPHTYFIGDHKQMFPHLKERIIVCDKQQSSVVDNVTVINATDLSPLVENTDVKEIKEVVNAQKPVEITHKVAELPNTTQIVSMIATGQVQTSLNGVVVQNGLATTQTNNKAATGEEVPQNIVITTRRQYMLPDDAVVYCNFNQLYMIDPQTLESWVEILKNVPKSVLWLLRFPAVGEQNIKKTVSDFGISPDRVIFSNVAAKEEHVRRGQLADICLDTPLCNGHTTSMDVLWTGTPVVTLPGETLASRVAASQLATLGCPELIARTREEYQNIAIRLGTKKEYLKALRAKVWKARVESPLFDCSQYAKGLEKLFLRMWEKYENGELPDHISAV
The data set can be described thus: X-ray crystallography (co-crystal, […] Å). Particulars: 3 mM UDP-5S-GlcNAc; pH 7.5 protein buffer; 21 °C. The class given is binding.

Data set [3] concerns the target T1, Δ1–312 hOGT. The data set can be described thus: radiometric transfer assay on RBL2 peptide, Ki from IC50 by Cheng-Prusoff. Format: biochemical.
The target in data set [4] is T3, Δ1–352 DmOGT (Drosophila melanogaster, UniProt Q7KJA9).
T3 construct: gene sxc; N-terminally truncated construct starting at residue 353 in TPR 10 (part of TPRs plus catalytic domain); expressed in E. coli (ArcticExpress), purified as hOGT Δ1-312; wild type in kinetics, K872M in crystal
T3 sequence (Q7KJA9 353-1059): T2 sequence (Q7KJA9 353-1059 K872M) with M520K
The description is as above. The class given is biochemical.

Data set [5] concerns the target T3, Δ1–352 DmOGT. The data set can be described thus: radiometric transfer assay on RBL2 peptide, three-parameter dose-response fit. The class given is biochemical.
Substrate in data set [6]: CC(=O)N[C@H]1[C@@H](OP(=O)(O)OP(=O)(O)OC[C@H]2O[C@@H](n3ccc(=O)[nH]c3=O)[C@H](O)[C@@H]2O)O[C@H](CO)[C@@H](O)[C@@H]1O
The data set can be described thus: radiometric transfer assay on RBL2 peptide, Michaelis-Menten fit. Format: biochemical, Drosophila melanogaster. Particulars: 0.25 mM RBL2 peptide …, UDP-[3H]-GlcNAc tracer, pH 7.5.

Substrate in data set [7]: CC(=O)N[C@H]1[C@@H](OP(=O)(O)OP(=O)(O)OC[C@H]2O[C@@H](n3ccc(=O)[nH]c3=O)[C@H](O)[C@@H]2O)O[C@H](CO)[C@@H](O)[C@@H]1O
Described as above. Format: biochemical, Homo sapiens. The conditions noted are these: 0.25 mM RBL2 peptide …, UDP-[3H]-GlcNAc tracer, pH 7.5.

Residue numbers refer to the chain shown, from its start. Numbers in names are those of the source.

As to `CC(=O)N[C@@H]1[C@@H](O)[C@H](O)[C@@H](CO)S[C@@H]1OP(=O)(O)OP(=O)(O)OC[C@H]1O[C@@H](n2ccc(=O)[nH]c2=O)[C@H](O)[C@@H]1O` [UDP-5S-GlcNAc], the IC50 was determined as 24.6 µM in data set [1] and 68.3 µM in data set [5]. Also, the “X-ray crystallography (co-crystal, 2.7 Å)” value in data set [2] was “crystallized in complex with the inhibitor/substrate analogue UDP-5S-GlcNAc”. In addition, the Ki in data set [3] was found to be 13.6 µM; in data set [4] it was 36.2 µM.

B1: Δ1–352 DmOGT (Drosophila melanogaster) (protein)
chain: T2 sequence (Q7KJA9 353-1059 K872M) with M520K
notes: N-terminally truncated construct starting at residue 353 in TPR 10 (part of TPRs plus catalytic domain); expressed in E. coli (ArcticExpress), purified as hOGT Δ1-312; wild type in kinetics, K872M in crystal
In the case of B1, the Km in data set [6] is on record as 17.8 ± 0.7 µM.

B2: Δ1–312 hOGT (Homo sapiens) (protein)
chain: T1 sequence (O15294 323-1041)
notes: N-terminally truncated, residues 1-312 removed (printed once as Δ1-313 beside the Ki); part of TPRs plus catalytic domain; recombinant
In the case of B2, the Km in data set [7] is 6.6 ± 0.3 µM.
